Read-outs that look alike come from different tables or passages of the source.
Tests used:
hLigIIIβ = target: T1, hLigIIIβ (Homo sapiens, UniProt P49916); assay: Radioactive gel-based DNA ligation assay; assay type: biochemical; settings: grades ±, Ø (key not given)
T1 sequence (P49916 1-862 isoform P49916-4): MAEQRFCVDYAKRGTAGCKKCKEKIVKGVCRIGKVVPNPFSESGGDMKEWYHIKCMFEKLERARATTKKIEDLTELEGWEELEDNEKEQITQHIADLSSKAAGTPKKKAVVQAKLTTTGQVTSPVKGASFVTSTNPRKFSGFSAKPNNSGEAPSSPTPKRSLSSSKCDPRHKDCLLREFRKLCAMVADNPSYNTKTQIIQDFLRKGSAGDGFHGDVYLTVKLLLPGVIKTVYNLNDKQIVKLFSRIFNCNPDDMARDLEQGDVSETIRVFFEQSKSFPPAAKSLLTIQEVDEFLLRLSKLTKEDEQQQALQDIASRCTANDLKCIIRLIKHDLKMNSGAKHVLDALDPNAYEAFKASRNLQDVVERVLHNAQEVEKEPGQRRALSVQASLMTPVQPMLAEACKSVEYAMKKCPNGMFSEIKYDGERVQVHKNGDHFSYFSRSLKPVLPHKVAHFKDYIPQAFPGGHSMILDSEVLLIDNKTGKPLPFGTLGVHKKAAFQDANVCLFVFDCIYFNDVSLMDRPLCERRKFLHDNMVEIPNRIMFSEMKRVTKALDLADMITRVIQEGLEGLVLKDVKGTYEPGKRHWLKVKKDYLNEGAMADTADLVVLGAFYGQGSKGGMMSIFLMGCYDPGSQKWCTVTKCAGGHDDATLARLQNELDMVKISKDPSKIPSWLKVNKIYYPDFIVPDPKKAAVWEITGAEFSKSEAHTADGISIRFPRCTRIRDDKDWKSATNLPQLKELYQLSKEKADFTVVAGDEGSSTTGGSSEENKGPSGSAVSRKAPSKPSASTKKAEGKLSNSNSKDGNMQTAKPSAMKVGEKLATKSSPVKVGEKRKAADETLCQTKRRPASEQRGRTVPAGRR

MCF10A cells = assay: MTT cell growth assay; assay type: cell-based, human; settings: for IC50: Homo sapiens, MCF-10A
In short: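 Seeded at 300 cells/well and allowed to adhere overnight, then serial compound dilutions in medium added for 5 days. MTT added for a further 4 h, formazan dissolved in isopropanol, and absorbance read at 560 nm.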

[1] = test system: Human DNA ligases I, III and IV and T4 DNA ligase; assay: Step 1 of the ligation reaction: ligase-AMP complex formation with [α32P] ATP; assay type: biochemical; settings: for inhibition of the first step of the ligation reaction (ligase-AMP formation): 100 μM, FIG. 3A
Description: Human DNA ligases I, III and IV and T4 DNA ligase were incubated with [α^32P] ATP in the absence or presence of compounds 67, 82 and 189 (100 μM). After separation by SDS-PAGE, the labeled ligase-AMP complex was detected by phosphorimaging.

HeLa cell extract = assay: Cell extract assay with 5′-flap substrate (DNA replication and long patch base excision repair); assay type: biochemical, human; settings: for Cell Extract 100 (μM): BER inhibited: kind of BER not given; for final ligation step of the flap substrate repair reaction / flap removal by FEN-1: HeLa extract, 100 μmol/L (also 25 μM in the source), FIG. 4A
Description: Extracts were prepared from human cervical cancer HeLa cells as described previously (27, 31). For base excision repair (BER) assays, the extraction buffer contained 100 mmol/L of KCl, whereas for nonhomologous end-joining (NHEJ) assays, extraction buffer contained 400 mmol/L of KCl. Where indicated, DNA ligases were immunodepleted from the extracts as described (32) using protein A or G Sepharose beads (GE Healthcare) and anti-Lig1, anti-LigIII (GeneTex), or anti-LigIV (ABCAM) antibodies. Depletion was confirmed by immunoblotting.
A labeled 5′-flap substrate (0.1 pmol; (31)) was incubated with 20 μg of extract in the absence or presence of ligase inhibitors (100 μmol/L) at 25° C. for 5 min in ligation buffer (final volume, 50 μL). For short patch BER, a linear duplex containing a single uracil residue was preincised by treatment with uracil DNA glycosylase and APE1 (both from NEB) to generate a strand break with 3′ hydroxyl and 5′ deoxyribose phosphate termini. Reactions (50 μL) containing 0.3 pmol of the incised DNA substrate, 10 μCi of [α^32P]dTTP, and 20 μg of extract either in the absence or presence of ligase inhibitors (100 μmol/L) were incubated at 25° C. for 2 min in ligation buffer. After separation by denaturing polyacrylamide gel electrophoresis, labeled oligonucleotides were detected in the dried gel by phosphorImager analysis (Molecular Dynamics).
Next we used published cell extract assays (16,27,28) that measure different DNA replication and repair transactions to confirm the specificity of the DNA ligase inhibitors. FIG. 4A, the flap substrate (0.1 pmol) was incubated with cell extract (20 μg) in the absence (lane 2, Mock) or presence of 100 μmol/L, of L189 (lane 3), L67 (lane 4), or L82 (lane 5). hLigI (lane 6, I-dp) and hLigIIIa (lane 7, III-dp) were immunodepleted from the cell extracts prior to incubation with the DNA substrate. Lane 1, DNA substrate alone (Sub). The positions of the DNA substrate (24-mer), cleaved product (18-mer), and fully repaired product (43-mer). The flap substrate shown in FIG. 4A corresponds to an intermediate generated on the lagging strand during DNA replication and in the long patch subpathway of base excision repair. Previously it has been shown that DNA ligase I completes these two DNA transactions after removal of the flap by FEN-1 (16,28). A cell extract from the human cervical cancer cell line HeLa was incubated with the indicated labeled flap substrate that mimics a common intermediate in DNA replication and long patch base excision repair in the absence or presence of Compounds 67, 82, 184 and 189 (25 μM). After separation by denaturing gel electrophoresis, labeled fragments corresponding to the DNA substrate, cleaved product and fully repaired product were detected by phosphorimaging (28).

[2] = cell growth, compound alone, read-out: IC50 (μM) MCF10A
[3] = sections 'high concentrations (~50 μM)' and 'active in vitro that decreased cell growth', same figures given in μM elsewhere in Table 6, read-out: IC50 MCF10A (head without unit)

| Compound | % activity Inhibition hLigIII gel (hLigIIIβ) | IC50 (MCF10A cells; [2]) [µM] | IC50 (MCF10A cells; [3]) [µM] | inhibition of the first step of the ligation reaction (ligase-AMP formation) [1] | Cell Extract 100 (μM): BER inhibited (HeLa cell extract) | final ligation step of the flap substrate repair reaction (HeLa cell extract) | flap removal by FEN-1 (HeLa cell extract) | further results |
| --- | --- | --- | --- | --- | --- | --- | --- | --- |
| C/C(O)=C1/C(=O)N(c2nc3ccccc3s2)N=C1c1ccccc1 [Compound 43] | Ø |  |  |  |  |  |  |  |
| O=C(O)CSc1cc(Cl)c2nonc2c1[N+](=O)[O-] [Compound 64] |  | 50 | 50 |  |  |  |  | potentiation of the growth inhibitory effect of 3 aminobenzamide (MCF10A cells; MCF10A cells, 3 aminobenzamide 2 mM, 5 days, MTT, FIG. 5B): markedly potentiates; Mechanism: ligation step inhibited (1st step) ([1]; Table 5A): 1st step |
| Cc1c(Br)cc(NCC(=O)N/N=C\c2cc([N+](=O)[O-])ccc2O)cc1Br [Compound 67] |  | 4 | 4 | did not inhibit | BER | inhibited the final ligation step of the repair reaction | had no effect on flap removal by FEN-1 |  |
| O=c1[nH]ncc(N/N=C\c2ccc(O)c([N+](=O)[O-])c2)c1Cl [Compound 82] |  |  |  | did not inhibit | BER | inhibited the final ligation step of the repair reaction | had no effect on flap removal by FEN-1 |  |
| O=C(Cn1cnc([N+](=O)[O-])n1)N/N=C/c1ccc(O)cc1O [Compound 151] | Ø | 6 | 6 |  | BER |  |  |  |
| O=C1Nc2ccccc2Oc2cc([N+](=O)[O-])cc([N+](=O)[O-])c21 [Compound 180] |  | 3 | 3 |  |  |  |  |  |
| CS(=O)(=O)NNC(=O)C(=O)NNc1ccccc1 [Compound 184] | Ø |  |  |  |  |  |  |  |
| Nc1nc(S)nc(O)c1/N=C/c1ccccc1 [Compound 189] |  |  |  | did not inhibit | BER | inhibited the final ligation step of the repair reaction | had no effect on flap removal by FEN-1 |  |
| COc1ccc(-c2cnc3c(O)nc(O)nc3n2)cc1 [Compound 190] | Ø |  |  |  |  |  |  |  |
| O=C(c1ccc(O)cc1)c1ccccc1O [Compound 200] |  | ~5 | 10 to 150 |  |  |  |  |  |
